Legend:
[1] = tested on: Plasmodium vinckei vinckei; assay: Antimalarial activity against Plasmodium vinckei V52 after 20 mg/kg intraperitoneal dose; type: functional
Mus musculus [2] = assay: Increase in mean survival days was determined in mice after ip administration of 50 mg/kg; toxic; type: functional; settings: route intraperitoneal
Mus musculus [3] = assay: (§1) Increase in mean survival days was determined in mice after ip administration of 70 mg/kg; toxic; type: functional; settings: route intraperitoneal
Mus musculus [4] = assay: Increase in mean survival days was determined in mice after ip administration of 10 mg/kg; type: functional; settings: route intraperitoneal
Mus musculus [5] = assay: Antimalarial activity was evaluated against Plasmodium vinckei vinckei V52 after intraperitoneal administration at dose 50 mg/kg.; type: functional
[6] = tested on: Plasmodium vinckei vinckei; assay: Antimalarial activity against Plasmodium vinckei V52 on 70 mg/kg intraperitoneal dose; type: functional
Mus musculus [7] = assay: Antimalarial activity was evaluated against Plasmodium vinckei vinckeii V52 after intraperitoneal administration at dose 40 mg/kg; type: functional
[8] = tested on: Plasmodium vinckei vinckei; assay: Antimalarial activity against Plasmodium vinckei V52 on 30 mg/kg intraperitoneal dose; type: functional
Mus musculus [9] = assay: Antimalarial activity was evaluated against Plasmodium vinckei V52 after intraperitoneal administration at dose 25 mg/kg; type: functional
Mus musculus [10] = species on record: Mus musculus; assay: Effective dose required to obtain a parasitaemia of 40% 48 hours after treatment in mice; type: functional
[11] = tested on: Plasmodium vinckei vinckei; assay: Antimalarial activity against Plasmodium vinckei V52 on 10 mg/kg intraperitoneal dose; type: functional
Mus musculus [12] = assay: Antimalarial activity was evaluated against Plasmodium vinckei V52 after intraperitoneal administration at dose 15 mg/kg; type: functional
Mus musculus [13] = assay: Increase in mean survival days was determined in mice after ip administration of 15 mg/kg; type: functional; settings: route intraperitoneal
Mus musculus [14] = assay: Increase in mean survival days was determined in mice after ip administration of 30 mg/kg; toxic; type: functional; settings: route intraperitoneal
Mus musculus [15] = assay: Increase in mean survival days was determined in mice after ip administration of 20 mg/kg; toxic; type: functional; settings: route intraperitoneal
Mus musculus [16] = assay: Increase in mean survival days was determined in mice after ip administration of 20 mg/kg; type: functional; settings: route intraperitoneal
Mus musculus [17] = assay: Increase in mean survival days was determined in mice after ip administration of 40 mg/kg; type: functional; settings: route intraperitoneal
Mus musculus [18] = assay: Increase in mean survival days was determined in mice after ip administration of 30 mg/kg; type: functional; settings: route intraperitoneal
Mus musculus [19] = assay: Increase in mean survival days was determined in mice after ip administration of 50 mg/kg; type: functional; settings: route intraperitoneal
Mus musculus [20] = assay: Antimalarial activity was evaluated against Plasmodium vinckei vinckei V52 after intraperitoneal administration at dose 40 mg/kg.; type: functional
Mus musculus [21] = assay: Antimalarial activity was evaluated against Plasmodium vinckei V52 after intraperitoneal administration at dose 50 mg/kg; type: functional
Mus musculus [22] = assay: Antimalarial activity was evaluated against Plasmodium vinckei V52 after intraperitoneal administration at dose 70 mg/kg; type: functional
Mus musculus [23] = assay: Antimalarial activity was evaluated against Plasmodium vinckei V52 after intraperitoneal administration at dose 30 mg/kg; type: functional
[24] = tested on: Plasmodium vinckei vinckei; assay: Antimalarial activity against Plasmodium vinckei vinckeii V52 at 20 mg/kg intraperitoneally dose; type: functional; settings: route intraperitoneal
[25] = tested on: Plasmodium vinckei vinckei; assay: Antimalarial activity against Plasmodium vinckei vinckeii V52 at 15 mg/kg intraperitoneally dose; type: functional; settings: route intraperitoneal
Mus musculus [26] = assay: Antimalarial activity was evaluated against Plasmodium vinckei vinckeii V52 after intraperitoneal administration at dose 25 mg/kg; type: functional
Mus musculus [27] = assay: Antimalarial activity was evaluated against Plasmodium vinckei vinckeii V52 after intraperitoneal administration at dose 50 mg/kg; type: functional
[28] = tested on: Plasmodium vinckei vinckei; assay: Antimalarial activity against Plasmodium vinckei vinckeii V52 after 10 mg/kg intraperitoneally dose; type: functional; settings: route intraperitoneal
Mus musculus [29] = assay: as §1; type: ADME, organism-based; parameters: dose 70 mg/kg, route intraperitoneal; settings: in vivo
Mus musculus [30] = assay: Antimalarial activity was evaluated against Plasmodium vinckei V52 after intraperitoneal administration at dose 60 mg/kg; type: functional
Mus musculus [31] = assay: Antimalarial activity was evaluated against Plasmodium vinckei V52 after intraperitoneal administration at dose 40 mg/kg; type: functional
Mus musculus [32] = assay: Increase in mean survival days was determined in mice after ip administration of 60 mg/kg; type: functional; settings: route intraperitoneal
Mus musculus [33] = assay: Antimalarial activity was evaluated against Plasmodium vinckei V52 after intraperitoneal administration at dose 20 mg/kg; type: functional
Mus musculus [34] = assay: Antimalarial activity was evaluated against Plasmodium vinckei vinckei V52 after intraperitoneal administration at dose 25 mg/kg; type: functional
Mus musculus [35] = assay: Antimalarial activity was evaluated against Plasmodium vinckei vinckei V52 after intraperitoneal administration at dose 50 mg/kg; type: functional
Mus musculus [36] = assay: Increase in mean survival days was determined in mice after ip administration of 60 mg/kg; toxic; type: functional; settings: route intraperitoneal
Mus musculus [37] = assay: Antimalarial activity was evaluated against Plasmodium vinckei vinckei V52 after intraperitoneal administration at dose 30 mg/kg; type: functional
Mus musculus [38] = assay: Antimalarial activity was evaluated against Plasmodium vinckei vinckei V52 after intraperitoneal administration at dose 40 mg/kg; type: functional
Mus musculus [39] = assay: Antimalarial activity was evaluated against Plasmodium vinckei vinckei V52 after intraperitoneal administration at dose 60 mg/kg; type: functional
Mus musculus [40] = assay: Antimalarial activity was evaluated against Plasmodium vinckei vinckeii V52 after intraperitoneal administration at dose 15 mg/kg; type: functional
Mus musculus [41] = assay: Antimalarial activity was evaluated against Plasmodium vinckei vinckeii V52 after intraperitoneal administration at dose 60 mg/kg; type: functional
Mus musculus [42] = assay: Antimalarial activity was evaluated against Plasmodium vinckei V52 after intraperitoneal administration at dose 10 mg/kg; type: functional

Cn1c(=O)nc2n(-c3ccc(Cl)cc3)c3ccccc3nc-2c1=O
Cured [1]: 100%
Mean survival days (Mus musculus [2]): -0.8 days
Mean survival days (Mus musculus [3]): -1 days
Mean survival days (Mus musculus [4]): 0.3 days
Cured (Mus musculus [5]): 20%
Cured [6]: 0%
Cured (Mus musculus [7]): 100%
Cured [8]: 100%
Cured (Mus musculus [9]): 100%
ED40 (Mus musculus [10]): 38.8 µmol/kg
Cured [11]: 20%
Cured (Mus musculus [12]): 80%
Mean survival days (Mus musculus [13]): 4 days

Cc1ccccc1-n1c2nc(=O)n(C)c(=O)c-2nc2ccccc21
Cured [1]: 0%
Mean survival days (Mus musculus [14]): -2 days
Mean survival days (Mus musculus [4]): -0.2 days
Mean survival days (Mus musculus [15]): -1 days
Cured [8]: 0%
Cured [11]: 0%

Cn1c(=O)nc2n(-c3ccc(F)cc3)c3ccccc3nc-2c1=O
Cured [1]: 0%
Mean survival days (Mus musculus [16]): 13.4 days
Mean survival days (Mus musculus [3]): -0.6 days
Mean survival days (Mus musculus [4]): 0 days
Cured [6]: 0%
Cured [8]: 80%
Mean survival days (Mus musculus [17]): 0 days
ED40 (Mus musculus [10]): 103 µmol/kg
Mean survival days (Mus musculus [18]): 0 days
Mean survival days (Mus musculus [19]): -0.5 days
Cured [11]: 0%
Cured (Mus musculus [20]): 80%
Cured (Mus musculus [12]): 0%
Mean survival days (Mus musculus [13]): 0 days
Cured (Mus musculus [21]): 20%

Cn1c(=O)nc2n(-c3ccc(Br)cc3)c3ccccc3nc-2c1=O
Cured (Mus musculus [22]): 0%
Cured (Mus musculus [23]): 100%
Cured [24]: 100%
Cured [25]: 100%
Cured (Mus musculus [26]): 100%
ED40 (Mus musculus [10]): 38.4 µmol/kg
Cured (Mus musculus [27]): 40%
Cured [28]: 0%

COc1ccc(-n2c3nc(=O)n(C)c(=O)c-3nc3ccccc32)cc1
Mean survival days (Mus musculus [29]): -0.5 days
Cured [1]: 0%
Cured (Mus musculus [30]): 80%
Cured (Mus musculus [31]): 20%
Mean survival days (Mus musculus [4]): 0 days
Cured [6]: 60%
Mean survival days (Mus musculus [32]): 1 days
Mean survival days (Mus musculus [17]): 1 days
ED40 (Mus musculus [10]): 138 µmol/kg
Mean survival days (Mus musculus [18]): 0.4 days
Mean survival days (Mus musculus [19]): 2 days
Cured [11]: 0%
Cured (Mus musculus [21]): 80%

Cc1cc(C)cc(-n2c3nc(=O)n(C)c(=O)c-3nc3ccccc32)c1
Cured (Mus musculus [33]): 100%
Cured (Mus musculus [34]): 100%
Cured (Mus musculus [35]): 60%
Mean survival days (Mus musculus [4]): 0 days
Mean survival days (Mus musculus [36]): 0.4 days
Cured (Mus musculus [37]): 100%
ED40 (Mus musculus [10]): 105 µmol/kg
Mean survival days (Mus musculus [19]): 5.5 days
Cured [11]: 0%
Cured (Mus musculus [12]): 60%
Cured (Mus musculus [38]): 100%
Mean survival days (Mus musculus [13]): 1 days
Cured (Mus musculus [39]): 0%

Cn1c(=O)nc2n(-c3cccc(Br)c3)c3ccccc3nc-2c1=O
Cured (Mus musculus [40]): 0%
Cured (Mus musculus [22]): 100%
Cured (Mus musculus [41]): 80%
Cured (Mus musculus [23]): 0%
Mean survival days (Mus musculus [4]): 0 days
Cured (Mus musculus [7]): 0%
Mean survival days (Mus musculus [32]): -1 days
Mean survival days (Mus musculus [17]): 0 days
Mean survival days (Mus musculus [18]): 0 days
Mean survival days (Mus musculus [19]): 1 days
Cured (Mus musculus [27]): 80%
Mean survival days (Mus musculus [13]): 0 days
Cured (Mus musculus [42]): 0%

— ChEMBL document CHEMBL1125711, “Flavins as potential antimalarials. 2. 3-Methyl-10-(substituted-phenyl) flavins” (J Med Chem, 1991)
